From the supplement of paper PMC12698765
Counter-ions that a name gives are not always drawn. ± gives the standard deviation of the averaged measurements.

Columns and labels:
[1] = tested on: 409B2 hiPSC (iCRISPR Cas9, FRMD7 editing); experiment: cell survival relative to solvent control (fold (ratio to mock)); higher = more surviving cells
Description: (§1)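 Subset screen of 55 drugs tested at 5 concentrations around the effective screening dose, in 409B2 iCRISPR Cas9 hiPSCs editing FRMD7 with a ssDNA donor. Drugs were applied for 24 h. Viability was read by resazurin and editing outcomes by amplicon sequencing (HDR, NHEJ <2 bp microhomology, MMEJ ≥2 bp microhomology). Values are relative to solvent mock controls; two biological replicates.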

[2] = tested on: 409B2 hiPSC (iCRISPR Cas9, FRMD7 editing); experiment: HDR (precise edit) frequency relative to solvent control (fold (ratio to mock)); higher = more homology-directed repair outcomes
Description: as §1

[3] = tested on: 409B2 hiPSC (iCRISPR Cas9, FRMD7 editing); experiment: MMEJ-attributed deletion frequency relative to solvent control (fold (ratio to mock)); higher = more MMEJ outcomes
Description: as §1

[4] = tested on: 409B2 hiPSC (iCRISPR Cas9, FRMD7 editing); experiment: NHEJ-attributed indel frequency relative to solvent control (fold (ratio to mock)); higher = more NHEJ outcomes
Description: as §1

Row | Structure (SMILES) | cell survival ([1]; 2000 nM) | cell survival ([1]; 5000 nM) | cell survival ([1]; 10000 nM) | cell survival ([1]; 20000 nM) | cell survival ([1]; 50000 nM) | HDR ([2]; 2000 nM) | HDR ([2]; 5000 nM) | HDR ([2]; 10000 nM) | HDR ([2]; 20000 nM) | HDR ([2]; 50000 nM) | MMEJ-attributed deletion frequency ([3]; 2000 nM) | MMEJ-attributed deletion frequency ([3]; 5000 nM) | MMEJ-attributed deletion frequency ([3]; 10000 nM) | MMEJ-attributed deletion frequency ([3]; 20000 nM) | MMEJ-attributed deletion frequency ([3]; 50000 nM) | NHEJ-attributed indel frequency ([4]; 2000 nM) | NHEJ-attributed indel frequency ([4]; 5000 nM) | NHEJ-attributed indel frequency ([4]; 10000 nM) | NHEJ-attributed indel frequency ([4]; 20000 nM) | NHEJ-attributed indel frequency ([4]; 50000 nM) | cell survival ([1]; 20 nM) | cell survival ([1]; 50 nM) | cell survival ([1]; 100 nM) | cell survival ([1]; 200 nM) | cell survival ([1]; 500 nM) | HDR ([2]; 20 nM) | HDR ([2]; 50 nM) | HDR ([2]; 100 nM) | HDR ([2]; 200 nM) | HDR ([2]; 500 nM) | MMEJ-attributed deletion frequency ([3]; 20 nM) | MMEJ-attributed deletion frequency ([3]; 50 nM) | MMEJ-attributed deletion frequency ([3]; 100 nM) | MMEJ-attributed deletion frequency ([3]; 200 nM) | MMEJ-attributed deletion frequency ([3]; 500 nM) | NHEJ-attributed indel frequency ([4]; 20 nM) | NHEJ-attributed indel frequency ([4]; 50 nM) | NHEJ-attributed indel frequency ([4]; 100 nM) | NHEJ-attributed indel frequency ([4]; 200 nM) | NHEJ-attributed indel frequency ([4]; 500 nM)
1 | CNCC[C@H](Oc1cccc2ccccc12)c1cccs1 [Duloxetine HCl] (in DMSO) | 0.92 | 1.24 | 1.18 | 0.796 | 0.0121 | 1.02 ± 0.13 | 1.14 ± 0.024 | 1.02 ± 0.0038 | 0.88 ± 0.06 | 0.33 ± 0.35 | 1.09 ± 0.25 | 1.14 ± 0.069 | 1.36 ± 0.053 | 1.86 ± 0.036 | 1.42 ± 0.81 | 0.932 ± 0.027 | 0.986 ± 0.0019 | 0.998 ± 0.025 | 1.029 ± 0.0059 | 0.517 ± 0.45 |  |  |  |  |  |  |  |  |  |  |  |  |  |  |  |  |  |  |  | 
2 | C[C@]12CC[C@@H]3c4ccc(O)cc4CC[C@H]3[C@@H]1C[C@@H](O)[C@@H]2O [Estriol] (in DMSO) | 0.929 | 1.19 | 1.05 | 0.994 | 1.15 | 0.971 ± 0.021 | 1.12 ± 0.049 | 1.07 ± 0.019 | 1.11 ± 0.019 | 1.15 ± 0.078 | 0.923 ± 0.2 | 0.996 ± 0.019 | 1 ± 0.038 | 1.04 ± 0.014 | 0.971 ± 0.029 | 1.02 ± 0.015 | 0.988 ± 0.043 | 0.987 ± 0.043 | 0.9898 ± 0.0067 | 0.986 ± 0.047 | 0.994 | 1.11 | 0.907 | 1.02 | 0.944 | 1.18 ± 0.038 | 1.03 ± 0.06 | 1.02 ± 0.079 | 1.04 ± 0.094 | 1.08 ± 0.14 | 0.961 ± 0.14 | 0.901 ± 0.016 | 0.923 ± 0.1 | 0.917 ± 0.12 | 0.932 ± 0.1 | 0.994 ± 0.029 | 1.01 ± 0.0089 | 1.01 ± 0.039 | 1.01 ± 0.018 | 1.02 ± 0.025
3 | CO[C@@H]1[C@H](OC(=O)/C=C/C=C/C=C/C=C/C(=O)O)CC[C@]2(CO2)[C@H]1[C@@]1(C)O[C@@H]1CC=C(C)C [Fumagillin] (in DMSO) |  |  |  |  |  |  |  |  |  |  |  |  |  |  |  |  |  |  |  |  | 0.264 | 0.134 | 0.0522 | 0.0162 | 0.0244 | 1.073 ± 0.0017 | 0.886 ± 0.049 | 0.791 ± 0.23 | 0.512 ± 0.27 | 0.471 ± 0.18 | 0.749 ± 0.1 | 0.7745 ± 0.0004 | 0.739 ± 0.15 | 0.705 ± 0.15 | 0.656 ± 0.17 | 0.883 ± 0.019 | 0.767 ± 0.041 | 0.723 ± 0.14 | 0.604 ± 0.14 | 0.537 ± 0.071
4 | CS(=O)(=O)N1CCN(Cc2cc3nc(-c4cccc5[nH]ncc45)nc(N4CCOCC4)c3s2)CC1 [GDC-0941] (in DMSO) |  |  |  |  |  |  |  |  |  |  |  |  |  |  |  |  |  |  |  |  | 0.924 | 0.877 | 0.7 | 0.444 | 0.15 | 1.15 ± 0.048 | 1.08 ± 0.0031 | 1.08 ± 0.075 | 1.14 ± 0.076 | 1.06 ± 0.19 | 1.02 ± 0.14 | 0.875 ± 0.054 | 0.874 ± 0.016 | 0.926 ± 0.2 | 0.887 ± 0.078 | 0.978 ± 0.0067 | 0.99142 ± 0.00057 | 0.945 ± 0.042 | 0.94 ± 0.041 | 0.86 ± 0.063
